According to patent publication US4578398A, “Substituted 2,3,4,9-tetrahydro-1H-carbazole-1-acetic acid, compositions and use” (American Home Products Corporation, priority 1985, dated 1986):

Key:
Adjuvant Edema = experiment: Preventative Adjuvant Edema (Freund's complete adjuvant, hind paw edema volume in rats); format: in vivo, Male Sprague Dawley rats; settings: p.o., rat, dosed day 0, 1 and 2, edema volume day 3
Experimental: This test is a primary screen for anti-inflammatory drugs.
Male Sprague Dawley rats (180-200 g) are used. The animals have free access water but food is withdrawn 18 hours before testing.
Drug Preparations and Administration:
Freund's complete adjuvant is prepared by suspending 5 mg killed and dried Mycobacterium butyricum (Difco) in 1 ml liquid paraffin. The test compounds are dissolved in distilled water or suspended in distilled water with a few drops of Tween 80 according to their solubility. […]
The method is essentially that described by Wax et al., J. Pharmacol. Exp. Ther., 192, 166-171 (1975). Groups of rats are injected intradermally in the left hind paw with 0.1 ml of Freund's complete adjuvant. The test compound or vehicle is administered immediately before the adjuvant, 24 hours and 48 hours after the adjuvant (day 0, 1 and 2). The injected hind paw volume is measured before the injection of adjuvant and 24 hrs. after the last drug administration (day 3) by means of a plethysmometer (Buxco Electronics Inc.). The difference between the hind paw volume on day 0 and day 3 represents the edema volume. Phenylbutazone (50 mg./kg, p.o.) is included as a positive control.
The mean edema volume (expressed as ml±SEM) is calculated for each group and the percentage protection conferred by the drug is calculated: [formula] where c is the mean edema volume for the untreated controls and t is the mean edema volume for the drug treated group.

Phenylquinone Writhing = experiment: Drug effects in phenylquinone-induced writhing in mice; format: in vivo, Male Swiss albino mice; settings: p.o., mouse, 60 min before phenylquinone i.p., writhes counted 15 min
Experimental: A further test used to determine the utility of the compounds of the present invention is designated: DRUG EFFECTS IN PHENYLQUINONE-INDUCED WRITHING IN MICE.
The objective of this test is to determine the ability of test drugs to inhibit the nociceptive (pain) response of mice injected with a chemical irritant. This test is a primary screen for both peripheral and centrally acting analgesic drugs.
Male Swiss albino mice (15-25 g). The animals are fasted for 18 hours prior to use but have free access to water.
Drug Preparation and Administration:
Drugs are dissolved or suspended according to their solubility in 0.5% methyl cellulose or 0.5% Tween 80. They are administered by gastric lavage in a volume of 5 ml/kg. For primary screening all drugs are administered at the arbitrary dosage of 200 mg/kg, p.o. to a group of 10 mice.
A modification of the method of Siegmund et al., Proc. Soc. Exp. Biol. Med., 95, 729-731 (1957) is used. Groups of 5 mice are dosed with the test compound or vehicle control. Sixty minutes later the animals are injected i.p. with 0.3 ml/20 g body weight of a 0.02% solution of phenylquinone (PBQ; 2-phenyl-1,4-benzoquinone) and placed in individual observation boxes. The number of writhing or abdominal squirming movements made by each mouse during the following 15 min. period is counted. The experiment is repeated with another group of 5 mice and the mean number of writhes per mouse for a group of 10 mice is calculated.
Drug treated and vehicle-treated control groups are compared and the percentage protection conferred by the drug is calculated: [formula] where c=mean number of writhes in the control group where t=mean number of writhes in the test drug group

SMILES | % Inhibition (Preventative Adjuvant Edema) (Adjuvant Edema; 25 mg/kg) [%] | % Inhibition (Phenylquinone Writhing in Mice) (Phenylquinone Writhing; 25 mg/kg) [%] | % Inhibition (Preventative Adjuvant Edema) (Adjuvant Edema; 50 mg/kg) [%] | % Inhibition (Phenylquinone Writhing in Mice) (Phenylquinone Writhing; 200 mg/kg) [%]
C=CC1CCC(CC)(CC(=O)O)c2[nH]c3c(CC)cccc3c21 (single isomer, unassigned) [Example 1 h, 4-Ethenyl-1,8-diethyl-2,3,4,9-tetrahydro-1H-carbazole-1-acetic Acid] | 62 | 0 | – | –
C=CC1CCC(CC)(CC(=O)O)c2[nH]c3c(CC)cccc3c21 (single isomer, unassigned) [Example 1 g, 4-Ethenyl-1,8-diethyl-2,3,4,9-tetrahydro-1H-carbazole-1-acetic Acid] | 30 | 21 | – | –
C=C(C)C1CCC(CC)(CC(=O)O)c2[nH]c3c(CC)cccc3c21 (single isomer, unassigned) [Example 3 e, 4-(1-Methylethenyl)-1,8-diethyl-2,3,4,9-tetrahydro-1H-carbazole-1-acetic Acid] | 46 | 0 | – | –
CCc1cccc2c3c([nH]c12)C(CC)(CC(=O)O)CCC3c1ccccc1 (single isomer, unassigned) [Example 2 e, 1,8-Diethyl-2,3,4,9-tetrahydro-4-phenyl-1H-carbazole-1-acetic acid] | 37 | 28 | – | –
CCc1cccc2c3c([nH]c12)C(CC)(CC(=O)O)CCC3c1ccccc1 (single isomer, unassigned) [Example 2 d, 1,8-Diethyl-2,3,4,9-tetrahydro-4-phenyl-1H-carbazole-1-acetic Acid] | 12 | 17 | – | –
C=C(C)C1CCC(CC)(CC(=O)O)c2[nH]c3c(CC)cccc3c21 (single isomer, unassigned) [Example 3 d, 4-(1-Methylethenyl)-1,8-diethyl-2,3,4,9-tetrahydro-1H-carbazole-1-acetic Acid] | – | – | 25 | 50
